According to the supplement of paper PMC10627819:

How the values were obtained:
S. aureus Newman [1] = experiment: fitness (endpoint OD595 vs no drug) (fraction); higher = more growth
Method in brief: (§1)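 Fitness was measured as bacterial growth in 384-well plates inoculated at OD595 0.01 (30 µl, or 55 µl for S. pneumoniae). Media were TSB, LB Lennox or CY, at 37 °C. OD595 was read every 30 min for 14 h and background-subtracted against the first reading. Fitness is OD595 at the transition into stationary phase divided by the robust mean of no-drug control wells, capped at 1.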

S. pneumoniae D39V [2] = experiment: as above
Method in brief: as §1

B. subtilis 168 [3] = experiment: Bliss interaction score (quartile over a dose matrix) (fitness difference); higher = more antagonism (negative = synergy)
Method in brief: (§2)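 The Bliss score subtracts expected fitness, the product of the single-drug fitness values, from observed fitness. Fitness is plate-normalised OD595 at entry into stationary phase, relative to the robust no-drug mean and capped at 1, with single-drug fitness inferred from combinations. Summaries are quartiles over technical, biological and donor/recipient replicates.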

S. aureus DSM 20231 = experiment: as above
Method in brief: as §2

S. aureus Newman [4] = experiment: as above
Method in brief: as §2

S. pneumoniae D39V [5] = experiment: as above
Method in brief: as §2

B. subtilis 168 [6] = experiment: fitness (endpoint OD595 vs no drug) (fraction); higher = more growth
Method in brief: as §1
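Throughout, for Bliss interaction score (quartile over a dose matrix): first quartile when negative (synergy) and third quartile when positive (antagonism).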

CCC[C@@H]1C[C@@H](C(=O)N[C@@H]([C@H]2O[C@H](SC)[C@H](O)[C@@H](O)[C@H]2O)[C@H](C)Cl)N(C)C1 [Clindamycin] + C/C(=C\C(=O)OCCCCCCCCC(=O)O)C[C@@H]1OC[C@H](C[C@@H]2O[C@H]2[C@@H](C)[C@H](C)O)[C@@H](O)[C@H]1O [Pseudomonic acid]
fitness, S. aureus Newman [1], one replicate
Details	first compound 0.0312 µg/mL	first compound 0.0625 µg/mL	first compound 0.125 µg/mL
partner 0.0313 µg/mL	0.0504	0.0504	0.0456
partner 0.0625 µg/mL	0.046	0.0445	0.0496
partner 0.125 µg/mL	0.0438	0.0538	0.0533

fitness, S. pneumoniae D39V [2]
Details	first compound 0.0125 µg/mL	first compound 0.015 µg/mL	first compound 0.025 µg/mL	first compound 0.03 µg/mL	first compound 0.05 µg/mL	first compound 0.06 µg/mL
partner 0.03 µg/mL	0.78	0.836	0.499	0.703	0.211	–
partner 0.06 µg/mL	0.716	0.69	0.4	–	0.17	0.281
partner 0.12 µg/mL	0.237	0.326	0.119	0.229	0.0924	0.16

Details	Bliss interaction score
B. subtilis 168 [3]	0.0726
S. aureus DSM 20231	0.0297
S. aureus Newman [4]	0.0412
S. pneumoniae D39V [5]	-0.15

CCC[C@@H]1C[C@@H](C(=O)N[C@@H]([C@H]2O[C@H](SC)[C@H](O)[C@@H](O)[C@H]2O)[C@H](C)Cl)N(C)C1 [Clindamycin] + CC(C1CCC(C(O1)OC2C(CC(C(C2O)OC3C(C(C(CO3)(C)O)NC)O)N)N)N)NC [Gentamicin]
fitness, one replicate, main component drawn
Details	first compound 0.0039 µg/mL	first compound 0.0078 µg/mL	first compound 0.0156 µg/mL	first compound 0.0312 µg/mL	first compound 0.0625 µg/mL	first compound 0.125 µg/mL
B. subtilis 168 [6], partner 0.0625 µg/mL	0.962	0.911	0.828	–	–	–
B. subtilis 168 [6], partner 0.125 µg/mL	0.995	0.938	0.839	–	–	–
B. subtilis 168 [6], partner 0.25 µg/mL	0.94	0.867	0.791	–	–	–
S. aureus Newman [1], partner 0.375 µg/mL	–	–	–	0.709	0.55	0.138
S. aureus Newman [1], partner 0.75 µg/mL	–	–	–	0.705	0.542	0.177
S. aureus Newman [1], partner 1.5 µg/mL	–	–	–	0.576	0.254	0.119

main component drawn
Details	fitness
B. subtilis 168 [6], first compound 0.0625 µg/mL, partner 0.0625 µg/mL	0.52
B. subtilis 168 [6], first compound 0.125 µg/mL, partner 0.0625 µg/mL	0.397
B. subtilis 168 [6], first compound 0.125 µg/mL, partner 0.25 µg/mL	0.0596
B. subtilis 168 [6], first compound 0.25 µg/mL, partner 0.25 µg/mL	0.0604
S. aureus Newman [1], first compound 0.0312 µg/mL, partner 0.5 µg/mL	0.839
S. aureus Newman [1], first compound 0.0312 µg/mL, partner 2 µg/mL	0.988
S. pneumoniae D39V [2], first compound 0.0125 µg/mL, partner 2 µg/mL	0.781
S. pneumoniae D39V [2], first compound 0.0125 µg/mL, partner 4 µg/mL	0.812
S. pneumoniae D39V [2], first compound 0.0125 µg/mL, partner 8 µg/mL	0.768
S. pneumoniae D39V [2], first compound 0.015 µg/mL, partner 2 µg/mL	0.732
S. pneumoniae D39V [2], first compound 0.015 µg/mL, partner 4 µg/mL	0.698
S. pneumoniae D39V [2], first compound 0.015 µg/mL, partner 8 µg/mL	0.63
S. pneumoniae D39V [2], first compound 0.025 µg/mL, partner 2 µg/mL	0.528
S. pneumoniae D39V [2], first compound 0.025 µg/mL, partner 4 µg/mL	0.513
S. pneumoniae D39V [2], first compound 0.025 µg/mL, partner 8 µg/mL	0.454
S. pneumoniae D39V [2], first compound 0.03 µg/mL, partner 2 µg/mL	0.454
S. pneumoniae D39V [2], first compound 0.03 µg/mL, partner 4 µg/mL	0.425
S. pneumoniae D39V [2], first compound 0.03 µg/mL, partner 8 µg/mL	0.405
S. pneumoniae D39V [2], first compound 0.05 µg/mL, partner 2 µg/mL	0.239
S. pneumoniae D39V [2], first compound 0.05 µg/mL, partner 4 µg/mL	0.254
S. pneumoniae D39V [2], first compound 0.05 µg/mL, partner 8 µg/mL	0.224
S. pneumoniae D39V [2], first compound 0.06 µg/mL, partner 2 µg/mL	0.299
S. pneumoniae D39V [2], first compound 0.06 µg/mL, partner 4 µg/mL	0.249
S. pneumoniae D39V [2], first compound 0.06 µg/mL, partner 8 µg/mL	0.244

main component drawn
Details	Bliss interaction score
B. subtilis 168 [3]	0.192
S. aureus DSM 20231	0.0691
S. aureus Newman [4]	0.148
S. pneumoniae D39V [5]	-0.0694

CCC[C@@H]1C[C@@H](C(=O)N[C@@H]([C@H]2O[C@H](SC)[C@H](O)[C@@H](O)[C@H]2O)[C@H](C)Cl)N(C)C1 [Clindamycin] + CN(C)c1cc(NC(=O)CNC(C)(C)C)c(O)c2c1C[C@H]1C[C@H]3[C@H](N(C)C)C(O)=C(C(N)=O)C(=O)[C@@]3(O)C(O)=C1C2=O [Tigecycline]
fitness, B. subtilis 168 [6], one replicate
Details	first compound 0.0039 µg/mL	first compound 0.0078 µg/mL	first compound 0.0156 µg/mL	first compound 0.0625 µg/mL	first compound 0.125 µg/mL	first compound 0.25 µg/mL
partner 0.039 µg/mL	0.986	0.866	0.862	–	–	–
partner 0.078 µg/mL	≥ 1	0.88	0.831	–	–	–
partner 0.125 µg/mL	–	–	–	0.809	0.656	0.44
partner 0.156 µg/mL	0.906	0.81	0.908	–	–	–
partner 0.25 µg/mL	–	–	–	0.722	0.575	0.342
partner 0.5 µg/mL	–	–	–	0.743	0.601	0.378

Details	fitness
B. subtilis 168 [6], first compound 0.0625 µg/mL, partner 0.039 µg/mL	0.596
B. subtilis 168 [6], first compound 0.0625 µg/mL, partner 0.078 µg/mL	0.537
B. subtilis 168 [6], first compound 0.0625 µg/mL, partner 0.156 µg/mL	0.538
B. subtilis 168 [6], first compound 0.125 µg/mL, partner 0.039 µg/mL	0.387
B. subtilis 168 [6], first compound 0.125 µg/mL, partner 0.078 µg/mL	0.38
B. subtilis 168 [6], first compound 0.125 µg/mL, partner 0.156 µg/mL	0.374
B. subtilis 168 [6], first compound 0.25 µg/mL, partner 0.039 µg/mL	0.378
B. subtilis 168 [6], first compound 0.25 µg/mL, partner 0.078 µg/mL	0.365
B. subtilis 168 [6], first compound 0.25 µg/mL, partner 0.156 µg/mL	0.369
S. aureus Newman [1], first compound 0.0312 µg/mL, partner 0.039 µg/mL	0.708
S. aureus Newman [1], first compound 0.0312 µg/mL, partner 0.078 µg/mL	0.715
S. aureus Newman [1], first compound 0.0312 µg/mL, partner 0.156 µg/mL	0.709
S. aureus Newman [1], first compound 0.125 µg/mL, partner 0.039 µg/mL	0.118
S. aureus Newman [1], first compound 0.125 µg/mL, partner 0.078 µg/mL	0.112
S. aureus Newman [1], first compound 0.125 µg/mL, partner 0.156 µg/mL	0.113
S. pneumoniae D39V [2], first compound 0.0125 µg/mL, partner 0.325 µg/mL	0.668
S. pneumoniae D39V [2], first compound 0.0125 µg/mL, partner 0.65 µg/mL	0.695
S. pneumoniae D39V [2], first compound 0.0125 µg/mL, partner 1.3 µg/mL	0.652
S. pneumoniae D39V [2], first compound 0.015 µg/mL, partner 0.65 µg/mL	0.753
S. pneumoniae D39V [2], first compound 0.015 µg/mL, partner 1.3 µg/mL	0.755
S. pneumoniae D39V [2], first compound 0.015 µg/mL, partner 2.6 µg/mL	0.815
S. pneumoniae D39V [2], first compound 0.025 µg/mL, partner 0.325 µg/mL	0.503
S. pneumoniae D39V [2], first compound 0.025 µg/mL, partner 0.65 µg/mL	0.461
S. pneumoniae D39V [2], first compound 0.025 µg/mL, partner 1.3 µg/mL	0.442
S. pneumoniae D39V [2], first compound 0.03 µg/mL, partner 0.65 µg/mL	0.653
S. pneumoniae D39V [2], first compound 0.03 µg/mL, partner 1.3 µg/mL	0.66
S. pneumoniae D39V [2], first compound 0.03 µg/mL, partner 2.6 µg/mL	0.673
S. pneumoniae D39V [2], first compound 0.05 µg/mL, partner 0.325 µg/mL	0.233
S. pneumoniae D39V [2], first compound 0.05 µg/mL, partner 0.65 µg/mL	0.2
S. pneumoniae D39V [2], first compound 0.05 µg/mL, partner 1.3 µg/mL	0.189
S. pneumoniae D39V [2], first compound 0.06 µg/mL, partner 0.65 µg/mL	0.551
S. pneumoniae D39V [2], first compound 0.06 µg/mL, partner 1.3 µg/mL	0.557
S. pneumoniae D39V [2], first compound 0.06 µg/mL, partner 2.6 µg/mL	0.539

Details	Bliss interaction score
B. subtilis 168 [3]	-0.0489
S. aureus DSM 20231	-0.0949
S. aureus Newman [4]	-0.0653
S. pneumoniae D39V [5]	-0.0934
